Measurements published in ChEMBL document CHEMBL1201862, “PubChem BioAssay data set” (2004).
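Where inhibition never reached the appropriate level, the endpoint shown equals the highest concentration tested. Otherwise, values were interpolated linearly from a five-concentration, 48-hour dose response in 96-well plates. The concentration for 50% growth inhibition is given as GI50.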 Activity calls are given as the source filed them. Rule as the data show it: active = GI50 up to about 1.1 µM and inactive = higher.

How the values were obtained:
Assay in all cases: inhibition of tumour cell growth, NCI panel, 48 h
[1] = tested on: ACHN
[2] = tested on: HL-60
[3] = tested on: NCI/ADR-RES
[4] = tested on: NCI-H460
[5] = tested on: MDA-MB-231
[6] = tested on: CAKI-1
[7] = tested on: Malme-3M
[8] = tested on: SR
[9] = tested on: MOLT-4
[10] = tested on: HOP-62
[11] = tested on: MCF7
[12] = tested on: U-251
[13] = tested on: HT-29
[14] = tested on: T47D
[15] = tested on: SK-MEL-2
[16] = tested on: UACC-257
[17] = tested on: A498
[18] = tested on: Hs-578T
[19] = tested on: KM12
[20] = tested on: NCI-H23

| Compound | GI50 [1] | GI50 [2] | GI50 [3] | GI50 [4] | GI50 [5] | GI50 [6] | GI50 [7] | GI50 [8] | GI50 [9] | GI50 [10] | GI50 [11] | GI50 [12] | GI50 [13] | GI50 [14] | GI50 [15] | GI50 [16] | GI50 [17] | GI50 [18] | GI50 [19] | GI50 [20] |
| --- | --- | --- | --- | --- | --- | --- | --- | --- | --- | --- | --- | --- | --- | --- | --- | --- | --- | --- | --- | --- |
| Clc1ncc(Cl)c(Cl)n1 | 1.92 µM (inactive) | 0.474 µM (active) | 3.95 µM (inactive) | 5.27 µM (inactive) | 3.03 µM (inactive) | 1.86 µM (inactive) | 1.88 µM (inactive) | 1.61 µM (inactive) | 1.5 µM (inactive) | 16.5 µM (inactive) | 1.59 µM (inactive) | 4.22 µM (inactive) | 1.36 µM (inactive) | 2.36 µM (inactive) | 2.12 µM (inactive) | 5.22 µM (inactive) | 19.1 µM (inactive) | 2.72 µM (inactive) | 9.14 µM (inactive) | 15.5 µM (inactive) |
| Cc1cc(C)nc(NS(=O)(=O)c2ccc(Nc3c4ccccc4nc4c(C(=O)NNCCO)cccc34)cc2)n1 | > 100 µM (inactive) | 42 µM (inactive) | > 100 µM (inactive) | 15.7 µM (inactive) | > 100 µM (inactive) | > 100 µM (inactive) | > 100 µM (inactive) | 25.4 µM (inactive) | 30.9 µM (inactive) | > 100 µM (inactive) | 89.1 µM (inactive) | > 100 µM (inactive) | > 100 µM (inactive) | 5.06 µM (inactive) | 58.6 µM (inactive) | > 100 µM (inactive) | > 100 µM (inactive) | > 100 µM (inactive) | > 100 µM (inactive) | > 100 µM (inactive) |
| Cc1cccc(/C=N/NC(=S)NCc2ccccn2)n1 | 10.4 µM (inactive) | 23.4 µM (inactive) | 25.2 µM (inactive) | 15.9 µM (inactive) | 33.5 µM (inactive) | 26.4 µM (inactive) | 22.1 µM (inactive) | 38.9 µM (inactive) | 16.5 µM (inactive) | 22.2 µM (inactive) | 31.8 µM (inactive) | 20.7 µM (inactive) | 27.7 µM (inactive) | 31 µM (inactive) | > 100 µM (inactive) | 41.7 µM (inactive) | 49.2 µM (inactive) | > 93.5 µM (inactive) | 40.3 µM (inactive) | 40.8 µM (inactive) |
| Cc1ccc(-c2n[nH]c(=O)n2/N=C\c2ccccc2)cc1 | 50.6 µM (inactive) | 70.1 µM (inactive) | 25.2 µM (inactive) | 33.6 µM (inactive) | 60.5 µM (inactive) | 57.9 µM (inactive) | > 91.2 µM (inactive) | > 72.6 µM (inactive) | > 79.6 µM (inactive) | 22.6 µM (inactive) | 56.2 µM (inactive) | 29.8 µM (inactive) | > 91 µM (inactive) | 36.6 µM (inactive) | 33.8 µM (inactive) | > 100 µM (inactive) | 36.6 µM (inactive) | 23.7 µM (inactive) | 54 µM (inactive) | 68.9 µM (inactive) |
| COC(=O)CCC(C)[C@H]1CCC2C3CC[C@@H]4CC5(CC[C@]4(C)C3C[C@H](OC(C)=O)[C@@]21C)OOC1(CCCCC1)OO5 (stereo not given in full) | 8.32 µM (inactive) | 2.49 µM (inactive) | 81.1 µM (inactive) | 4.69 µM (inactive) | > 100 µM (inactive) | 4.03 µM (inactive) | 4.03 µM (inactive) | 3.33 µM (inactive) | 6.11 µM (inactive) | 8.89 µM (inactive) | 8.69 µM (inactive) | 6.62 µM (inactive) | 14.2 µM (inactive) | 2.75 µM (inactive) | 5.26 µM (inactive) | 4.49 µM (inactive) | > 100 µM (inactive) | 13.4 µM (inactive) | 8.85 µM (inactive) | 9.55 µM (inactive) |
| O=C(O)C(O)C(O)C(O)C(=O)CO (stereo not given) | > 100 µM (inactive) | > 100 µM (inactive) | > 100 µM (inactive) | > 100 µM (inactive) | > 100 µM (inactive) | > 100 µM (inactive) | > 100 µM (inactive) | > 100 µM (inactive) | > 100 µM (inactive) | > 100 µM (inactive) | > 100 µM (inactive) | > 100 µM (inactive) | > 100 µM (inactive) | > 100 µM (inactive) | > 100 µM (inactive) | > 100 µM (inactive) | > 100 µM (inactive) | > 100 µM (inactive) | > 100 µM (inactive) | > 100 µM (inactive) |
| O=C(CCc1cccc(O)c1)NCCc1cccc(O)c1 | > 100 µM (inactive) | > 100 µM (inactive) | > 100 µM (inactive) | > 100 µM (inactive) | > 100 µM (inactive) | > 100 µM (inactive) | > 100 µM (inactive) | > 100 µM (inactive) | > 100 µM (inactive) | > 100 µM (inactive) | > 100 µM (inactive) | > 100 µM (inactive) | > 100 µM (inactive) | > 100 µM (inactive) | > 100 µM (inactive) | > 100 µM (inactive) | > 100 µM (inactive) | > 100 µM (inactive) | > 100 µM (inactive) | > 100 µM (inactive) |
